Columns and labels:
conscious Beagle dogs = experiment: Measurement of Pulmonary Artery Pressure in conscious telemetric Beagle dogs; format: in vivo, dog (male Beagle); details: for lowering of pulmonary artery pressure (in words): conscious dogs; for reduction of U44096-induced PH (pulmonary artery pressure): conscious Beagle dogs, significant
[1] = system: isolated rat pulmonary vessels; experiment: Relaxation of isolated small pulmonary arteries precontracted with norepinephrine (organ bath / vessel myograph); design: species or system rat (male Wistar); details: comparison of vardenafil, sildenafil and tadalafil

## CCCc1nc(C)c2c(=O)[nH]c(-c3cc(S(=O)(=O)N4CCN(CC)CC4)ccc3OCC)nn12 [Vardenafil, vardenafil]
Conscious Beagle dogs; inhalation compared with oral application, conscious dogs with telemetric implant
  decrease of pulmonary artery pressure, inhaled vs oral (in words): more potently decreased pulmonary artery pressure then Vardenafil applied orally
Conscious Beagle dogs; inhalation, 30μg/kg, compared with 10-fold higher oral dose
  lowering of pulmonary artery pressure (in words): could lower pulmonary artery pressure as significantly as with the 10-fold higher oral dose
Conscious Beagle dogs; inhaled, 30μg/kg nebulized within 10 minutes
  reduction of U44096-induced PH (pulmonary artery pressure): 30%
Conscious Beagle dogs; inhaled, 30μg/kg/10 min, whole observation period 3 hours
  duration of the decrease of the pulmonary artery pressure: ≥ 3 h
Conscious Beagle dogs; oral, 300μg/kg
  reduction of U44096-induced PH (pulmonary artery pressure): 30%
  lowering of pulmonary artery pressure (in words): significantly lowered pulmonary artery pressure
[1]
  relaxation of rat pulmonary vessels (ranking of PDE5 inhibitors): most prominent
[1]; listed as vardenafil
  relaxation of rat pulmonary vessels (ranking of PDE5 inhibitors): relaxed pulmonary vessels of rat more potently then the PDE5 inhibitors sildenafil and tadalafil

Source: patent WO2009115235A1, “Pde inhibitors for the treatment of pulmonary hypertension” (Bayer Schering Pharma AG, priority 2008, dated 2009)
